Measurements: ChEMBL document CHEMBL4400539, “Discovery of a Novel Chemotype of Histone Lysine Methyltransferase EHMT1/2 (GLP/G9a) Inhibitors: Rational Design, Synthesis, Biological Evaluation, and Co-crystal Structure” (J Med Chem, 2019)

How the values were obtained:
[1] = molecular target: T1, Histone-lysine N-methyltransferase EHMT2 (Homo sapiens, UniProt Q96KQ7); experiment: Inhibition of recombinant human G9a using biotinylated-Histone H3 peptide (1 to 21 residues) after 30 mins in presence of SAM by AlphaLISA assay
T1 sequence (Q96KQ7 whole entry): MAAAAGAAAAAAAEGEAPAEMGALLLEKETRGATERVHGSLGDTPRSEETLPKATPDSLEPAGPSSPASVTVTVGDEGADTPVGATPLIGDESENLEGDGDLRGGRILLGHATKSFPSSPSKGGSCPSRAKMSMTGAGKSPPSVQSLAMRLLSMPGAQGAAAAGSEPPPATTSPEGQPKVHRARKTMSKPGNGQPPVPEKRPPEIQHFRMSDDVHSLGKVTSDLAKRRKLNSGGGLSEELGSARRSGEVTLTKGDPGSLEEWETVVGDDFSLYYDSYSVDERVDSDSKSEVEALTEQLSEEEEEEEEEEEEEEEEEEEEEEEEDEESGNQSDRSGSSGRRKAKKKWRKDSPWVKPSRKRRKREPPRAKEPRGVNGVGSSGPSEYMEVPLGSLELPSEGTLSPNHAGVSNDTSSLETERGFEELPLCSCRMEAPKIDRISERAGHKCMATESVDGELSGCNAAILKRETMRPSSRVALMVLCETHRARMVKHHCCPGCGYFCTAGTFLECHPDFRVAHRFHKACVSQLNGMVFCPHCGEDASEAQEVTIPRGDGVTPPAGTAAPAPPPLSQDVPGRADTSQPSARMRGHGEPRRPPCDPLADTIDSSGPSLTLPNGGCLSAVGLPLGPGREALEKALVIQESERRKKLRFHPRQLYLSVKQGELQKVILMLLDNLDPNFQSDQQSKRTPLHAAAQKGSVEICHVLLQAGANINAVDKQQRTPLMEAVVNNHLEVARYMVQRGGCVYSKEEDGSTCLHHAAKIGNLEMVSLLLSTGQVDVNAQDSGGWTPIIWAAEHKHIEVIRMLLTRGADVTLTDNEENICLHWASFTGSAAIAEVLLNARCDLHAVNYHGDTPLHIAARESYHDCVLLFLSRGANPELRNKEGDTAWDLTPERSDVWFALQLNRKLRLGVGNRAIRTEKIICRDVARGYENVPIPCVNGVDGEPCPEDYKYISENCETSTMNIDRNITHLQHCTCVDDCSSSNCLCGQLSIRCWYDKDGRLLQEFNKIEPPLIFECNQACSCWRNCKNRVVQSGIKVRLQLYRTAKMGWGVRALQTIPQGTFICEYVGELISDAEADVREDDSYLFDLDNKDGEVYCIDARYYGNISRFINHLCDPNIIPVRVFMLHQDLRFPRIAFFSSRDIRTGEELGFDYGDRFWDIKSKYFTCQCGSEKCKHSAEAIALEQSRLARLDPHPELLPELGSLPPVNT

[2] = Apparent permeability of the compound after 24 hrs by PAMPA; assay type: ADME
[3] = Apparent permeability of the compound after 24 hrs by BBB-PAMPA; assay type: ADME
[4] = Metabolic stability in human liver microsomes assessed as parent compound turn over percentage at 1 mM preincubated for 5 mins followed by NADPH addition and measured for 60 mins by UHPLC analysis; assay type: ADME, Microsome; conditions: read-out: Drug metabolism
[5] = molecular target: T1, Histone-lysine N-methyltransferase EHMT2; experiment: Inhibition G9a (unknown origin)

COc1cc2c(cc1OCCCN1CCCC1)NC(c1ccccc1)CN=C2NC1CCN(C(C)C)CC1 (stereo not drawn)
IC50 [1]: 2.09 µM

COc1cc2c(cc1OCCCN1CCCC1)NC(C1CCCCC1)CN=C2NC1CCN(C(C)C)CC1 (stereo not drawn)
IC50 [1]: 0.955 µM

COc1cc2c(cc1OCCCN1CCCC1)N=C(c1ccccc1)CN=C2NC1CCN(C(C)C)CC1
IC50 [1]: 1.09 µM

COc1cc2c(NC3CCN(C(C)C)CC3)nc(C3CCCCC3)nc2cc1OCCCN1CCCC1
Papp [2]: 0.49 ×10⁻⁷ cm/s
Papp [3]: 0.19 ×10⁻⁷ cm/s
metabolised at 1 h [4]: 2.93%

COc1cc2c(cc1OCCCN1CCCC1)N=C(C1CCCCC1)CC(NC1CCN(C(C)C)CC1)=N2
IC50 [1]: 2.98 µM

COc1cc2c(NC3CCN(CCCCCN)CC3)nc(NCCCN(C)C)nc2cc1OCCCCCN
IC50 [5]: 0.16 µM
